This is an account of results in BindingDB's records for doi:10.1021/jm801490z (Nantong University, 2021).

The target of assay [1] is T1, Replicase polyprotein 1ab (Severe acute respiratory syndrome coronavirus 2, UniProt P0DTD1). In words: Inhibition of SARS-CoV-2 Main protease (3264 to 3569 residues) expressed in Escherichia coli BL21-Gold (DE3) using Dabcyl-KTSAVLQSGFRKM-E(Edans)-NH2 as substrate by FRET assay.
The target of assay [2] is T1, Replicase polyprotein 1ab. Briefly: Inhibition of SARS-CoV-2 3CL protease expressed in Escherichia coli using Dabcyl-KTSAVLQSGFRKM-E(Edans)-NH2 as substrate preincubated for 30 mins followed by substrate addition and measured after 3 hrs.

The compound `CC(C)(C)OC(=O)Nc1ccn([C@@H](CC2CC2)C(=O)N[C@@H](C[C@@H]2CCNC2=O)C(=O)C(=O)NCc2ccccc2)c(=O)c1` yielded an IC50 in assay [1] of 670 nM.

`Cn1nc(-c2ccc(C(F)(F)F)cc2)nc2c(=O)n(C)c(=O)cc1-2` came in with an IC50 in assay [2] of 260 nM.
